Laboratory results published in patent US20240226026A1, “BRANCHED TAIL LIPID COMPOUNDS AND COMPOSITIONS FOR INTRACELLULAR DELIVERY OF THERAPEUTIC AGENTS” (ModernaTX, Inc., priority 2021, published 2024).

Columns and labels:
[1] = Lipid nanoparticle surface hydrophobicity by Generalized Polarization by Laurdan (N-GP); type: physicochemical
Source text: Surface hydrophobicity of nanoparticles of the disclosure can be measured by Generalized Polarization by Laurdan (GPL). In this method, Laurdan, a fluorescent aminonaphthalene ketone lipid, is post-inserted into the nanoparticle surface and the fluorescence spectrum of Laurdan is collected to determine the normalized Generalized Polarization (N-GP). In some embodiments, nanoparticles formulated with lipids of the disclosure have a surface hydrophobicity expressed as N-GP of between about 0.5 and about 1.5. For example, in some embodiments, nanoparticles formulated with lipids of the disclosure have a surface hydrophobicity expressed as N-GP of about 0.5, about 0.6, about 0.7, about 0.8, about 0.9, about 1.0, about 1.1, about 1.2, about 1.3, about 1.4, or about 1.5. In some embodiments, nanoparticles formulated with lipids of the disclosure have a surface hydrophobicity expressed as N-GP of about 1.0 or about 1.1.

[2] = Particle size (diameter) and polydispersity index of lipid nanoparticles; type: physicochemical; details: nanoparticles comprising the lipid
Method: A Zetasizer Nano ZS (Malvern Instruments Ltd, Malvern, Worcestershire, UK) can be used to determine the particle size, the polydispersity index (PDI) and the zeta potential of the nanoparticle compositions in 1×PBS in determining particle size and 15 mM PBS in determining zeta potential.
Lipid nanoparticles (e.g., empty LNPs or loaded LNPs) may be characterized by a variety of methods. For example, microscopy (e.g., transmission electron microscopy or scanning electron microscopy) may be used to examine the morphology and size distribution of a nanoparticle composition. Dynamic light scattering or potentiometry (e.g., potentiometric titrations) may be used to measure zeta potentials. Dynamic light scattering may also be utilized to determine particle sizes. Instruments such as the Zetasizer Nano ZS (Malvern Instruments Ltd, Malvern, Worcestershire, UK) may also be used to measure multiple characteristics of a nanoparticle composition, such as particle size, polydispersity index, and zeta potential.
(§1) Lipid nanoparticles (e.g., empty LNPs or loaded LNPs) including DSPC as a phospholipid, cholesterol as a structural lipid, PL-II (e.g., PEG-1) as a PEG lipid, and a lipid according to Formula (I-1), (I), (I-A), (I-A1), (I-A2), (I-A3), or (I-A4) were prepared. In some embodiments, the lipid nanoparticles further included rhodamine-DOPE as a fluorescent lipid. Tables 2a, 2b, and 3 summarize the characteristics of the formulations.

[3] = Apparent pKa of lipid nanoparticles; type: physicochemical
[4] = Encapsulation efficiency (% EE) of lipid nanoparticles; type: physicochemical; details: nanoparticles comprising the lipid
Method: For nanoparticle compositions including an RNA, a QUANT-IT™ RIBOGREEN® RNA assay (Invitrogen Corporation Carlsbad, CA) can be used to evaluate the encapsulation of an RNA by the nanoparticle composition. The samples are diluted to a concentration of approximately 5 μg/mL in a TE buffer solution (10 mM Tris-HCl, 1 mM EDTA, pH 7.5). 50 μL of the diluted samples are transferred to a polystyrene 96 well plate and either 50 μL of TE buffer or 50 μL of a 2% Triton X-100 solution is added to the wells. The plate is incubated at a temperature of 37° C. for 15 minutes. The RIBOGREEN® reagent is diluted 1:100 in TE buffer, and 100 μL of this solution is added to each well. The fluorescence intensity can be measured using a fluorescence plate reader (Wallac Victor 1420 Multilablel Counter; Perkin Elmer, Waltham, MA) at an excitation wavelength of, for example, about 480 nm and an emission wavelength of, for example, about 520 nm. The fluorescence values of the reagent blank are subtracted from that of each of the samples and the percentage of free RNA is determined by dividing the fluorescence intensity of the intact sample (without addition of Triton X-100) by the fluorescence value of the disrupted sample (caused by the addition of Triton X-100).
The efficiency of encapsulation of a therapeutic and/or prophylactic describes the amount of therapeutic and/or prophylactic that is encapsulated or otherwise associated with a lipid nanoparticle (e.g., an empty LNP or a loaded LNP) after preparation, relative to the initial amount provided. The encapsulation efficiency is desired to be high (e.g., close to 100%). The encapsulation efficiency may be measured, for example, by comparing the amount of therapeutic and/or prophylactic in a solution containing a loaded LNP before and after breaking up the loaded LNP with one or more organic solvents or detergents. Fluorescence may be used to measure the amount of free therapeutic and/or prophylactic (e.g., RNA) in a solution. For the loaded LNPs formulated with lipids of the disclosure, the encapsulation efficiency of a therapeutic and/or prophylactic is at least 50%, for example 50%, 55%, 60%, 65%, 70%, 75%, 80%, 85%, 90%, 91%, 92%, 93%, 94%, 95%, 96%, 97%, 98%, 99%, or 100%. In some embodiments, the encapsulation efficiency is at least 80%. In some embodiments, the encapsulation efficiency is at least 90%. In some embodiments, the encapsulation efficiency of the therapeutic and/or prophylactic agent is between 80% and 100%.
as §1

CD-1 mice = test: Expression of hEPO induced by LNPs (mRNA encoding hEPO) administered to mice; type: in vivo; details: serum, 6 h after intravenous injection; for Avg. hEPO Concentration (mIU/mL): Table 4b
Method: In some embodiments, hEPO concentrations were determined using an […] (ELLA) Simple Plex Assay (ProteinSimple) with a Human Erythroprotein cartridge. Standards for this assay are calibrated according to the 2. IRP WHO preparation. Nanoparticle compositions including mRNA are useful in the evaluation of the efficacy and usefulness of various formulations for the delivery of therapeutic and/or prophylactics. Higher levels of protein expression induced by administration of a composition including an mRNA will be indicative of higher mRNA translation and/or nanoparticle composition mRNA delivery efficiencies. As the non-RNA components are not thought to affect translational machineries themselves, a higher level of protein expression is likely indicative of a higher efficiency of delivery of the therapeutic and/or prophylactic by a given nanoparticle composition relative to other nanoparticle compositions or the absence thereof.
To assess potency of expression of lipids of the disclosure, the protein expression (hEPO) following administration of a nanoparticle comprising a lipid of the disclosure (e.g., a loaded LNP) to mice was measured.
Lipid nanoparticles (LNPs) including DSPC as a phospholipid, cholesterol as a structural lipid, PL-II (e.g., PEG-1) as a PEG lipid, a lipid according to Formula (I-1), (I), (I-A), (I-A1), (I-A2), (I-A3), or (I-A4), and an mRNA encoding hEPO were intravenously administered to CD-1 mice. The concentration of hEPO in serum was tested at 6 h after injection.

Row | SMILES | Avg. hEPO Concentration (mIU/mL) (CD-1 mice; ELLA Simple Plex Assay) | further results
1 | CCCCCCCCC(CCCCCCCC)OC(=O)CCCCCCCN(CCCCCCCC(=O)OCCC(CCCC)CCCC)CCCNc1n[s+]([O-])nc1NC (stereo not drawn) [Compound 1] |  | Lipid nanoparticle surface hydrophobicity (N-GP*) ([1]; Table 2a, Laurdan, higher N-GP indicates a less polar surface): 1.07; PDI ([2]; Table 2a): 0.342; Diameter (nm) ([2]; Table 2a, DSPC, cholesterol, PEG lipid): 69.7 nm; Diameter (nm) ([2]; Table 3): 63.3 nm; PDI ([2]; Table 3): 0.083; Apparent pKa ([3]; Table 2a, nanoparticles comprising the lipid): 7.187; % EE ([4]; Table 2a): 98.1%; % EE ([4]; Table 3): 97.9%; Avg. hEPO Concentration (mIU/mL) ± Avg. SD (CD-1 mice; Table 4a): 7.26E+06 ± 1.51E+05 mIU/mL
2 | CCCCCCCCC(CCCCCCCC)OC(=O)CCCCCCCN(CCCCCCCC(=O)OCCC(CCCC)CCCC)CCCNc1noc(N)n1 [Compound 2] |  | LNP surface hydrophobicity (N-GP*) ([1]; Table 2b, nanoparticles comprising the lipid): 1.21; Diameter (nm) ([2]; Table 2b): 68.6 nm; PDI ([2]; Table 2b): 0.214; Diameter (nm) ([2]; Table 3): 52.6 nm; PDI ([2]; Table 3): 0.163; Apparent pKa 95% CI ([3]; Table 2b, 95% confidence interval): 6.437 to 6.559; % EE ([4]; Table 2b): 99.2%; % EE ([4]; Table 3): 97.6%; Avg. hEPO Concentration (mIU/mL)* ± Avg. SD (CD-1 mice; Table 4a, ELLA Simple Plex Assay): 3.38E+05 ± 9.49E+03 mIU/mL
3 | CCCCCCCCC(CCCCCCCC)OC(=O)CCCCCCCN(CCCCCCCC(=O)OCCC(CCCC)CCCC)CCCNC(C)=O [Compound 29] | 7.06E+05 mIU/mL | 
4 | CCCCCCCCC(CCCCCCCC)OC(=O)CCCCCCCN(CCCCCCCC(=O)OCCC(CCCC)CCCC)CCCNC(=O)CC [Compound 30] | 4.73E+06 mIU/mL | 
5 | CCCCCCCCC(CCCCCCCC)OC(=O)CCCCCCCN(CCCCCCCC(=O)OCCC(CCCC)CCCC)CCCNC(=O)C(C)C [Compound 31] | 2.31E+06 mIU/mL | 
6 | CCCCCCCCC(CCCCCCCC)OC(=O)CCCCCCCN(CCCCCCCC(=O)OCCC(CCCC)CCCC)CCCNC(=O)C(C)(C)C [Compound 32] | 1.54E+06 mIU/mL | 
7 | CCCCCCCCC(CCCCCCCC)OC(=O)CCCCCCCN(CCCCCCCC(=O)OCCC(CCCC)CCCC)CCCNC(=O)c1ccccc1 [Compound 33] | 1.78E+05 mIU/mL | 
8 | CCCCCCCCC(CCCCCCCC)OC(=O)CCCCCCCN(CCCCCCCC(=O)OCCC(CCCC)CCCC)CCCNC(=O)C(C)O (stereo not drawn) [Compound 35] | 1.54E+05 mIU/mL | 
9 | CCCCCCCCC(CCCCCCCC)OC(=O)CCCCCCCN(CCCCCCCC(=O)OCCC(CCCC)CCCC)CCCNC(=O)C1(C)CCC1 [Compound 36] | 1.41E+06 mIU/mL | 
10 | CCCCCCCCC(CCCCCCCC)OC(=O)CCCCCCCN(CCCCCCCC(=O)OCCC(CCCC)CCCC)CCCNC(=O)C1(CC)CC1 [Compound 37] | 1.39E+06 mIU/mL | 
11 | CCCCCCCCC(CCCCCCCC)OC(=O)CCCCCCCN(CCCCCCCC(=O)OCCC(CCCC)CCCC)CCCNC(=O)COC [Compound 38] | 6.13E+05 mIU/mL | 
12 | CCCCCCCCC(CCCCCCCC)OC(=O)CCCCCCCN(CCCCCCCC(=O)OCCC(CCCC)CCCC)CCCNC(=O)C1CC1 [Compound 39] | 2.93E+06 mIU/mL | 
13 | CCCCCCCCC(CCCCCCCC)OC(=O)CCCCCCCN(CCCCCCCC(=O)OCCC(CCCC)CCCC)CCCNC(=O)C1CCOCC1 [Compound 40] | 2.16E+06 mIU/mL | 
14 | CCCCCCCCC(CCCCCCCC)OC(=O)CCCCCCCN(CCCCCCCC(=O)OCCC(CCCC)CCCC)CCCNC(=O)C1CCCCC1 [Compound 41] | 1.31E+06 mIU/mL | 
15 | CCCCCCCCC(CCCCCCCC)OC(=O)CCCCCCCN(CCCCCCCC(=O)OCCC(CCCC)CCCC)CCCNC(=O)C12CCC(CC1)CC2 [Compound 42] | 1.02E+06 mIU/mL | 
16 | CCCCCCCCC(CCCCCCCC)OC(=O)CCCCCCCN(CCCCCCCC(=O)OCCC(CCCC)CCCC)CCCNC(=O)C1CCCO1 (stereo not drawn) [Compound 43] | 2.23E+06 mIU/mL | 
17 | CCCCCCCCC(CCCCCCCC)OC(=O)CCCCCCCN(CCCCCCCC(=O)OCCC(CCCC)CCCC)CCCNC(=O)C1CCOC1 (stereo not drawn) [Compound 44] | 1.02E+06 mIU/mL | 
18 | CCCCCCCCC(CCCCCCCC)OC(=O)CCCCCCCN(CCCCCCCC(=O)OCCC(CCCC)CCCC)CCCNC(=O)CNC(C)=O [Compound 46] | 3.88E+03 mIU/mL | 
19 | CC#CC(=O)NCCCN(CCCCCCCC(=O)OCCC(CCCC)CCCC)CCCCCCCC(=O)OC(CCCCCCCC)CCCCCCCC [Compound 47] | 1.17E+06 mIU/mL | 
20 | CCCCCCCCC(CCCCCCCC)OC(=O)CCCCCCCN(CCCCCCCC(=O)OCCC(CCCC)CCCC)CCCNC(=O)C1CCN(C(C)=O)C1 (stereo not drawn) [Compound 48] | 1.47E+02 mIU/mL | 
21 | CCCCCCCCC(CCCCCCCC)OC(=O)CCCCCCCN(CCCCCCCC(=O)OCCC(CCCC)CCCC)CCCNC(=O)C#CC1CC1 [Compound 50] | 2.60E+05 mIU/mL | 
22 | CCCCCCCCC(CCCCCCCC)OC(=O)CCCCCCCN(CCCCCCCC(=O)OCCC(CCCC)CCCC)CCCNC(=O)C1(C)CCOC1 (stereo not drawn) [Compound 55] | 2.61E+06 mIU/mL | 
23 | CCCCCCCCC(CCCCCCCC)OC(=O)CCCCCCCN(CCCCCCCC(=O)OCCC(CCCC)CCCC)CCCNC(=O)C1(C)CCCO1 (stereo not drawn) [Compound 56] | 1.17E+04 mIU/mL | 
24 | CCCCCCCCC(CCCCCCCC)OC(=O)CCCCCCCN(CCCCCCCC(=O)OCCC(CCCC)CCCC)CCCNC(=O)C1(C)CCCCC1 [Compound 58] | 4.17E+05 mIU/mL | 
25 | CCCCCCCCC(CCCCCCCC)OC(=O)CCCCCCCN(CCCCCCCC(=O)OCCC(CCCC)CCCC)CCCNC=O [Compound 59] | 3.27E+05 mIU/mL | 
26 | CCCCCCCCC(CCCCCCCC)OC(=O)CCCCCCCN(CCCCCCCC(=O)OCCC(CCCC)CCCC)CCCNC(=O)C1CN(C(C)=O)C1 [Compound 60] | 2.10E+02 mIU/mL | 
